“Also recorded” adds a separate entry of the source.
Tests used:
Type in all cases: biochemical, human
[1] = test system: normal pooled plasma (NPP); experiment: dRVVT Screen / dRVVT Confirm test, 1:1 mixing study
Source text: (§1) The results of the LA screening assays are expressed by Screen Ratio (Rs), an assay done in the presence of low levels of phospholipid, Confirm Ratio (Re), an assay done in the presence of elevated levels of phospholipid, Screen-to-Confirm Ratio (R) and Normalized Screen-to-Confirm Ratio (NR) defined as follows: […]
(§2) For each of the assays above, irrespective of the clotting inhibitor used in the assay, the measured screen assay clotting time of a patient sample is compared to the measured screen assay clotting time of normal platelet poor plasma and expressed as a ratio (Rs). Additionally, the measured confirm assay clotting time of a patient sample is compared to the measured confirm assay clotting time of normal platelet poor plasma and expressed as a ratio (Rc). A normalized ratio (NR) is expressed as Rs/Rc. The NR is compared to a cutoff ratio established from normal, healthy subjects.

[2] = test system: LA positive plasma sample; experiment: as above; conditions: for NR of dRVVT test: 1000 ng/ml PPACK
Source text: as §1, §2

[3] = test system: LA negative sample (platelet poor NPP); experiment: APTT-based silica clotting time (SCT Screen / SCT Confirm) assay, 1:1 mixing study; conditions: for Screen-to-Confirm Ratio (R) of SCT Assay: LA negative sample
Source text: as §1, §2
(§3) D-phenylalanyl-1-prolyl-1-arginine-chloromethyl ketone (PPACK) is a synthetic peptide that irreversibly binds to the catalytic site of thrombin. Referring to FIGS. 1-3, the use of PPACK in an SCT assay is shown where a plasma test sample was mixed with a LA negative plasma sample pool in a 1:1 ratio during testing (i.e., in a mixing study setting). By a mixing study, clotting factors that are present in normal plasma are added to the test plasma suspected of having a coagulation disorder.
(§4) Referring to FIGS. 1A-B, while the effect of PPACK on SCT Screen and SCT Confirm is similar for the LA negative sample, PPACK has much greater impact on SCT Screen than on SCT Confirm for the LA positive samples.

[4] = test system: LA positive plasma sample; experiment: as above
Source text: as §1, §2, §3, §4
The effect of PPACK on LA detection is further analyzed on the LA positive sample diluted with LA negative sample in different ratios (1:1 and 1:3 of LA positive: LA Negative). When the LA positive sample was diluted 4-fold with LA negative sample, the LA was not detectable in the absence of PPACK (NR: […]) thereby underscoring the increased sensitivity of the method disclosed herein.

[5] = test system: patient plasma samples (LA negative, factor deficient, LA positive); experiment: HemosIL dRVVT Screen and dRVVT Confirm in the presence of PPACK, 1:1 mixing study setting, patient samples; conditions: 350 nM PPACK
Source text: as §1
as §2, with “subjects. […]” for “subjects.”
The study reported the normalized ratio correctly for all plasma samples and addressed issues with factor deficiency (Table 2).

[6] = sample 0114 LA NEG, LA Negative Pool
[7] = sample 0114 S03, FVIIIDef (con)
[8] = sample 0114 S04, FVIIIDef (con)
[9] = sample 0114 S05, FVIII (con)/vWF Def
[10] = sample 0114 S06, FVIII (con)/vWF Def

## CC1CNc2c(cccc2S(=O)(=O)N[C@@H](CCCNC(=N)N)C(=O)N2CC[C@@H](C)C[C@@H]2C(=O)O)C1 (some centres unmarked) [argatroban]
[1]; 500 ng/ml argatroban (1.06 in the absence of argatroban)
  Screen-to-Confirm Ratio of dRVVT Assay: 0.9
[2]; LA positive sample, 500 ng/ml argatroban (from 1.34)
  Normalized ratio of dRVVT Assay: 1.57
[2]; LA positive sample, argatroban
  Change of Screen-to-Confirm Ratio of dRVVT Assay: didn't change

## D-phenylalanyl-1-prolyl-1-arginine-chloromethyl ketone [PPACK]
[3]; 100 nM PPACK (0.81 at 0 nM)
  Screen-to-Confirm Ratio (R) of SCT Assay: 0.83
[3]; 1000 nM PPACK (0.81 at 0 nM)
  Screen-to-Confirm Ratio (R) of SCT Assay: 0.78
[3]; NPP / LA negative sample, increasing PPACK concentrations
  Change of Screen-to-Confirm Ratio of SCT Assay: remained the same; also recorded: decreased slightly
[4]; LA positive sample 1:1 diluted with NPP, 1000 ng/ml PPACK, automated mixing study 1:1
  Normalized Ratio (NR) of SCT Assay: 1.82
[4]; LA positive sample 1:3 diluted with NPP, 1000 ng/ml PPACK, automated mixing study 1:1
  Normalized Ratio (NR) of SCT Assay: 1.46
[4]; LA positive sample diluted 4-fold with LA negative sample, 1000 nM PPACK (1.08 in the absence of PPACK)
  Normalized Ratio (NR) of SCT Assay: 1.46
[4]; LA positive sample undiluted, 1000 ng/ml PPACK, automated mixing study 1:1 with NPP/PPACK
  Normalized Ratio (NR) of SCT Assay: 2.34
[4]; LA positive sample, 1000 nM PPACK (1.09 in the absence of PPACK)
  Screen-to-Confirm Ratio (R) of SCT Assay: 1.82
[5]; [6]
  Confirm: 50.4 s
  Confirm (Rc): 1.00
  S/C (NR): 1.00
  S/C (R): 0.98
  Screen: 49.6 s
  Screen (Rs): 1.00
[5]; sample 0114 S01, FVDef (con)
  Confirm: 62.8 s
  Confirm (Rc): 1.25
  S/C (NR): 1.02
  S/C (R): 1.01
  Screen: 63.3 s
  Screen (Rs): 1.28
[5]; sample 0114 S02, FVDef (con)
  Confirm: 54.2 s
  Confirm (Rc): 1.08
  S/C (NR): 0.88
  S/C (R): 0.87
  Screen: 46.9 s
  Screen (Rs): 0.95
[5]; [7]
  Confirm: 47.9 s
  Confirm (Rc): 0.95
  S/C (NR): 1.05
  S/C (R): 1.04
  Screen: 49.7 s
  Screen (Rs): 1.00
[5]; [8]
  Confirm: 48.5 s
  Confirm (Rc): 0.96
  S/C (NR): 1.03
  S/C (R): 1.02
  Screen: 49.3 s
  Screen (Rs): 0.99
[5]; [9]
  Confirm: 49.2 s
  Confirm (Rc): 0.98
  S/C (NR): 1.00
  S/C (R): 0.98
  Screen: 48.4 s
  Screen (Rs): 0.98
[5]; [10]
  Confirm: 48.9 s
  Confirm (Rc): 0.97
  S/C (NR): 1.01
  S/C (R): 0.99
  Screen: 48.6 s
  Screen (Rs): 0.98
[5]; sample 0114 S07, FIXDef (con)
  Confirm: 50.5 s
  Confirm (Rc): 1.00
  S/C (NR): 0.97
  S/C (R): 0.95
  Screen: 41.1 s
  Screen (Rs): 0.97
[5]; sample 0114 S08, FIXDef (con)
  Confirm: 48.9 s
  Confirm (Rc): 0.97
  S/C (NR): 1.01
  S/C (R): 0.99
  Screen: 48.5 s
  Screen (Rs): 0.98
[5]; sample 0114 S09, FXDef (con)
  Confirm: 59.2 s
  Confirm (Rc): 1.17
  S/C (NR): 1.04
  S/C (R): 1.03
  Screen: 60.7 s
  Screen (Rs): 1.22
[5]; sample 0114 S10, FXDef (con)
  Confirm: 51.4 s
  Confirm (Rc): 1.02
  S/C (NR): 1.01
  S/C (R): 0.99
  Screen: 51.1 s
  Screen (Rs): 1.03
[5]; sample 0114 S11, FXIDef (con)
  Confirm: 49.7 s
  Confirm (Rc): 0.99
  S/C (NR): 1.00
  S/C (R): 0.98
  Screen: 48.8 s
  Screen (Rs): 0.98
[5]; sample 0114 S12, FXIDef (con)
  Confirm: 47.7 s
  Confirm (Rc): 0.95
  S/C (NR): 1.00
  S/C (R): 0.98
  Screen: 46.8 s
  Screen (Rs): 0.94
[5]; sample 0114 S13, FXIIDef (con)
  Confirm: 45.3 s
  Confirm (Rc): 0.90
  S/C (NR): 1.01
  S/C (R): 0.99
  Screen: 44.9 s
  Screen (Rs): 0.91
[5]; sample 0114 S14, FXIIDef (acq)
  Confirm: 53.4 s
  Confirm (Rc): 1.06
  S/C (NR): 0.94
  S/C (R): 0.93
  Screen: 49.4 s
  Screen (Rs): 1.00
[5]; sample 0114 S15, LA Postive
  Confirm: 49.7 s
  Confirm (Rc): 0.99
  S/C (NR): 2.49
  S/C (R): 2.45
  Screen: 121.8 s
  Screen (Rs): 2.46
[5]; sample 0114 S16, LA Postive
  Confirm: 51.7 s
  Confirm (Rc): 1.03
  S/C (NR): 2.70
  S/C (R): 2.66
  Screen: 137.4 s
  Screen (Rs): 2.77
[5]; sample 0114 S17, LA Postive
  Confirm: 49.8 s
  Confirm (Rc): 0.99
  S/C (NR): 2.19
  S/C (R): 2.15
  Screen: 107.3 s
  Screen (Rs): 2.16
[1]; increasing PPACK concentrations (from 1.02)
  Screen-to-Confirm Ratio of dRVVT test: 0.91
[2]; LA positive sample 1:1 diluted with NPP, automated mixing study 1:1
  NR of dRVVT test: 1.42
[2]; LA positive sample 1:3 diluted with NPP, automated mixing study 1:1
  NR of dRVVT test: 1.19
[2]; LA positive sample undiluted, automated mixing study 1:1 with NPP/PPACK
  NR of dRVVT test: 1.76
[2]; LA positive sample, increasing PPACK concentrations (from 1.42)
  Screen-to-Confirm Ratio of dRVVT test: 1.58

## hirudin
[1]; 1000 ng/ml hirudin (1.02 in the absence of hirudin)
  Screen-to-Confirm Ratio of dRVVT Assay: 1.18
[2]; LA positive sample, 200 ng/ml hirudin alone
  Normalized ratio of dRVVT Assay: 1.72
[2]; LA positive sample, 1000 ng/ml hirudin (1.39 without thrombin inhibitor)
  Normalized ratio of dRVVT Assay: 1.81
[2]; LA positive sample, 1000 ng/ml hirudin (1.41 in the absence of hirudin)
  Screen-to-Confirm Ratio of dRVVT Assay: 2.14

— US10935560B2, “Method and kit for identifying lupus anticoagulant (LA) associated with antiphospholipid syndrome” (Instrumentation Laboratory Company, priority 2016, dated 2021)
